The inhibition is the share of the control response that was lost under treatment. A word on the melting point: it is the temperature, or range, at which the solid turns liquid.

Where two headings read alike, the source gives them in different places. A value given as a limit tells only on which side of the number the result lay.

One data set has as its target cruzipain (Trypanosoma cruzi, UniProt P25779). Description: Cruzipain enzyme inhibition (chromogenic substrate Bz-Pro-Phe-Arg-p-NA, absorbance 410 nm). As to conditions: 10 min preincubation, pH 7.6, read-out: % Inhibition CP (cruzipain); for inhibition at 25 µM: 25 μM inhibitor; for inhibition at 50 µM: 50 μM inhibitor; for inhibition at 100 µM: 100 μM inhibitor. Type of data set: biochemical. Here is the method: The capacity of inhibiting the cruzipain enzyme was performed according to the protocol detailed below: cruzipain (10 μL) was incubated with a reaction mixture containing a final concentration of 50 mM of Tris-HCl buffer solution, pH 7.6, 10 mM β-mercaptoethanol and 25, 50 or 100 μM of the inhibitor during 10 min at ambient temperature. Later the chromogenic substrate Bz-Pro-Phe-Arg-p-NA was aggregated at a final concentration of 150 μM, and the increase in absorbance at 410 nm was followed for 5 min at temperature in a Beckman DU 650 spectrophotometer. The inhibitors were added dissolved in DMSO and the controls (100% of enzymatic activity) contained the same concentration of solvent. The final volume of the assay is 100 μL. The values represented at least three independent assays. The data obtained for some of the derivatives in table 3 are shown by way of example.

In data set [1] the test system is Trypanosoma cruzi, epimastigote form of the Tulahuen 2 strain. Put plainly: In vitro growth inhibition of Trypanosoma cruzi epimastigotes (Tulahuen 2 strain), absorbance at 600 nm. The data set is classed as cell-based. Conditions: 120 h, absorbance on day 5, duplicate, error ±3%, read-out: IC50 Anti-T. cruzi activity of the Tulahuen 2 strain. As for the experimental part: The studies of the antichagasic activity were performed in vitro against Trypanosoma cruzi, on the epimastigote form of the Tulahuen 2 strains, (from the strains collection of the Biological Physicochemistry Laboratory, of the Institute of Biological Chemistry, of the Faculty of Science, University of the Republica Oriental of Uruguay, Uruguay). Said strains were cultured at 28° C. in an axenic medium (BHI-tryptose), complemented with 5% of fetal bovine serum. […] The growth of the parasite was followed during 11 days by culture absorbance measurements at 600 nm, proportional to the number of cells present. Before inoculation, a pre-established quantity of each compound of the invention to test was incorporated in the medium, dissolved in DMSO (dimethylsulfoxide). The final concentration of DMSO in the culture medium never exceeded 0.4%, using a blank (absence of product or compound of the invention) with 0.4% DMSO. […] The growth PI was calculated as follows: PI={1−[(Ap−Aop)/(Ac−Aoc)]}×100 where: • Ap=A600 nm of the culture containing the product on day 5. • Aop=A600 nm of the culture containing the product after addition of the culture (day 0). • Ac=A600 nm of the blank on day 5. • Aoc=A600 nm of the blank on day 0. The A600 nm taken on day 5 corresponds to the late exponential phase in the culture growth curve. The determination of the IC50 (half maximal inhibitory concentration) was performed following the growth of the parasite in the absence (control) and presence of increasing concentrations of the corresponding products. The absorbance was measured on day 5 and it was related to the control.

The next data set has as its system J774 murine macrophages. Put plainly: Non-specific cytotoxicity against J774 murine macrophages (MTT/formazan). As to conditions: for PC J774 macrophages (%) (percentage of non-specific cytotoxicity): MTT; for IC50: Mus musculus, read-out: IC50 concentration of compound which reduces the growth of macrophages by 50%. Type of data set: cell-based. As for the experimental part: The cellular viability was determined based on the conservation of mitochondrial activity by the MTT/formazan method.

Setting [2] is: J774 murine macrophages, 48 hours, average of two evaluations.

cruzipain, sequence (P25779 123-467): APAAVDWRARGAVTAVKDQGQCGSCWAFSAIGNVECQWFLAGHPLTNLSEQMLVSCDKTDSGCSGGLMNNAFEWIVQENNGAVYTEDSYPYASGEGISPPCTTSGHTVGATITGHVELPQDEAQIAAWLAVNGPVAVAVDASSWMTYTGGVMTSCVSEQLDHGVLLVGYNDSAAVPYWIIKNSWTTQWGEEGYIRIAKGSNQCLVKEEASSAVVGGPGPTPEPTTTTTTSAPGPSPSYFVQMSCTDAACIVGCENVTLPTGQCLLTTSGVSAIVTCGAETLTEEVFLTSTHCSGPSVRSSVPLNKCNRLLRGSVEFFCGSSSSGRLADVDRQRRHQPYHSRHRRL

Turning to `NC1=NS(=O)(=O)N(Cc2ccc(Cl)cc2)c2nc(C3CCCCC3)[nH]c21`, on cruzipain, the inhibition at 25 µM was 0%, the inhibition at 50 µM amounted to 7% and the inhibition at 100 µM is 28%.
With `NC1=NS(=O)(=O)N(Cc2ccccc2)c2nc(-c3ccccc3)n(Cc3ccccc3)c21` [drawing 10], the IC50 in data set [1] was determined as 4.5 µM.
In the case of `NC1=NS(=O)(=O)Nc2nc(C3CCOC3)[nH]c21` (stereo not shown) [Example 1b, 4-amino-6-(3-tetrahydrofuryl)-1H,5H-imidazo[4,5-c][1,2,6]thiadiazine 2,2-dioxide], the melting point fell in the range of 238 to 240 °C.
For the molecule `NC1=NS(=O)(=O)Nc2nc(CCc3ccccc3)[nH]c21` [Example 1c, 4-amino-6-phenethyl-1H,5H-imidazo[4,5-c][1,2,6]thiadiazine 2,2-dioxide], the melting point was 190 to 192 °C.
The same measure, in the same setting: the same measure for `NC1=NS(=O)(=O)N(Cc2ccccc2)c2nc(-c3ccccc3)n(Cc3ccccc3)c21` [Example 3a, 4-amino-1,5-dibenzyl-6-phenylimidazo[4,5-c][1,2,6]thiadiazine 2,2-dioxide]: 238 to 240 °C.
For `NC1=NS(=O)(=O)Nc2nc(C3CCCCC3)[nH]c21` [drawing 20], the “PC J774 macrophages (%) (percentage of non-specific cytotoxicity)” value with J774 murine macrophages (100 μM compound, 48 hours) is 1.4%; in the data set on J774 murine macrophages (200 μM compound, 48 hours), 8.0%; in the data set with J774 murine macrophages (400 μM compound, 48 hours), 11.5%. Also, in the data set with J774 murine macrophages (setting [2]), the IC50 was over 400 µM.
For `NC1=NS(=O)(=O)N(Cc2ccccc2)c2nc(-c3ccccc3)[nH]c21`, in data set [1], the IC50 was 29.5 µM.
On the same count and under the same terms, in the case of `NC1=NS(=O)(=O)Nc2nc(-c3ccsc3)[nH]c21` it was 22.2 µM; in that of `NC1=NS(=O)(=O)N(Cc2ccccc2)c2nc(C3CCCCC3)n(Cc3ccccc3)c21` [drawing 17], 28.7 µM.
In the case of `CC1CS(=O)(=O)CCN1N=Cc1ccc([N+](=O)[O-])o1` (stereo not shown) [Nifurtimox, 4-([5 nitrofurfurylidene]-amino)-3-methylthiomorpholine-1,1-dioxide, reference compound], the IC50 in data set [1] is 7.7 µM; in the data set on J774 murine macrophages (J774, 48 h), 316 µM.
Consider `CN1c2nc(-c3ccccc3)[nH]c2C(N)=NS1(=O)=O` [drawing 8], for which the IC50 in data set [1] is 16.7 µM.
With `NC1=NS(=O)(=O)N(Cc2ccc(Cl)cc2)c2nc(C3CCCCC3)n(Cc3ccc(Cl)cc3)c21`, on cruzipain, the inhibition at 100 µM was determined as 31%.
With `CN1c2nc(-c3ccsc3)[nH]c2C(N)=NS1(=O)=O`, the IC50 in data set [1] came to 26.2 µM.
Regarding `CN1c2nc(-c3ccccc3)[nH]c2C(N)=NS1(=O)=O` [drawing 22], the “PC J774 macrophages (%) (percentage of non-specific cytotoxicity)” value with J774 murine macrophages (100 μM compound, 48 hours) was found to be 22.5%; with J774 murine macrophages (200 μM compound, 48 hours), 77.5%; with J774 murine macrophages (400 μM compound, 48 hours), 99.0%. Also, the IC50 in the data set with J774 murine macrophages (setting [2]) is 128 µM.
On to `NC1=NS(=O)(=O)N(Cc2ccccc2)c2nc(-c3ccccc3)n(Cc3ccc(Cl)cc3)c21` [drawing 18], for which the IC50 in data set [1] is 10 µM.
As for `NC1=NS(=O)(=O)N(Cc2ccc(Cl)cc2)c2nc(-c3ccccc3F)[nH]c21` [drawing 27], at cruzipain, the inhibition at 25 µM was 7%, the inhibition at 50 µM came to 30% and the inhibition at 100 µM was determined as 30%.
Consider `NC1=NS(=O)(=O)N(Cc2ccc(Cl)cc2)c2nc(-c3ccccc3F)[nH]c21` [drawing 16], for which the IC50 in data set [1] turned out to be 7 µM.
As to `CN(C/C=C/C#CC(C)(C)C)Cc1cccc2ccccc12` [Terbinafine, reference compound], the “PC J774 macrophages (%) (percentage of non-specific cytotoxicity)” value in the data set with J774 murine macrophages (100 μM compound, 48 hours) worked out at 10.0%; in the data set with J774 murine macrophages (200 μM compound, 48 hours), 26.0%; in the data set with J774 murine macrophages (400 μM compound, 48 hours), 60.0%. In addition, the IC50 in the data set with J774 murine macrophages (setting [2]) is 339 µM.
Consider `NC1=NS(=O)(=O)Nc2nc(CCc3ccccc3)[nH]c21` [drawing 14], for which the IC50 in data set [1] worked out at 11.5 µM.
As for `NC1=NS(=O)(=O)Nc2nc(C3CCCC3)[nH]c21`, in data set [1], the IC50 was 28.9 µM.
On to `NC1=NS(=O)(=O)Nc2nc(Cc3ccccc3)[nH]c21` [drawing 19], for which the “PC J774 macrophages (%) (percentage of non-specific cytotoxicity)” value with J774 murine macrophages (100 μM compound, 48 hours) amounted to 17.6%; in the data set on J774 murine macrophages (200 μM compound, 48 hours), 24.3%; in the data set on J774 murine macrophages (400 μM compound, 48 hours), 29.4%. The IC50 in the data set on J774 murine macrophages (setting [2]) is over 400 µM.
For the molecule `O=C(Cn1ccnc1[N+](=O)[O-])NCc1ccccc1` [Benznidazole, N-benzyl-2-nitro-1-imidazole acetamide, reference compound], the IC50 in data set [1] was 7.4 µM.
On to `NC1=NS(=O)(=O)N(Cc2ccccc2)c2nc(C3CCCCC3)n(Cc3ccc(Cl)cc3)c21`, for which, at cruzipain, the inhibition at 25 µM came to 10%, the inhibition at 50 µM amounted to 39% and the inhibition at 100 µM amounted to 40%.
The like results for `NC1=NS(=O)(=O)N(Cc2ccccc2)c2nc(C3CCCCC3)n(Cc3ccccc3)c21` [drawing 23] were, in that order, 0%, 30% and 58%.
On to `CC(=O)N1CCN(c2ccc(OCC3COC(Cn4ccnc4)(c4ccc(Cl)cc4Cl)O3)cc2)CC1` (stereo not shown) [Ketoconazole, reference compound], for which the IC50 with J774 murine macrophages (J774, 48 h) is under 100 µM.
The molecule `NC1=NS(=O)(=O)N(Cc2ccccc2)c2nc(-c3ccccc3)n(Cc3ccc(Cl)cc3)c21` [Example 3b, 4-amino-1-benzyl-5-(4-chlorobenzyl)-6-phenylimidazo[4,5-c][1,2,6]thiadiazine 2,2-dioxide] gave a melting point of 245 to 247 °C.
Consider `NC1=NS(=O)(=O)Nc2nc(-c3ccccc3F)[nH]c21`, for which the IC50 in data set [1] was 20.2 µM.
With `NC1=NS(=O)(=O)Nc2nc(C3CCCCC3)[nH]c21` [drawing 11], in data set [1], the IC50 was 12.7 µM.
Same read-out and setting: the same measure for `CCc1nc2c([nH]1)C(N)=NS(=O)(=O)N2`: 28.5 µM.
On the same count and under the same terms, in the case of `NC1=NS(=O)(=O)Nc2nc(Cc3ccccc3)[nH]c21` [drawing 7] it was 16.2 µM.
For the molecule `NC1=NS(=O)(=O)N(Cc2ccc(Cl)cc2)c2nc(-c3ccccc3F)[nH]c21` [drawing 21], the “PC J774 macrophages (%) (percentage of non-specific cytotoxicity)” value in the data set on J774 murine macrophages (100 μM compound, 48 hours) came out at 100.0%; in the data set on J774 murine macrophages (200 μM compound, 48 hours), 100.0%; in the data set with J774 murine macrophages (400 μM compound, 48 hours), 100.0%. For the same molecule, the IC50 with J774 murine macrophages (setting [2]) was under 100 µM.
On to `NC1=NS(=O)(=O)Nc2nc(C3CCCCC3)[nH]c21` [Example 1a, 4-amino-6-cyclohexyl-1H,5H-imidazo[4,5-c][1,2,6]thiadiazine 2,2-dioxide], for which the melting point fell in the range of 263 to 265 °C.
`NC1=NS(=O)(=O)Nc2nc(C3CCOC3)[nH]c21` (stereo not shown) [drawing 12]: in data set [1], the IC50 worked out at 20.3 µM.
Consider `CN(C)c1ccc(-c2nc3c([nH]2)C(N)=NS(=O)(=O)N3)cc1`, for which the IC50 in data set [1] was 28.5 µM.

(Values after patent publication US8815846B2, “Family of antichagasics derived from imidazo[4,5-C][1,2,6]thiadiazine 2,2-dioxide” (Universidad de la Republica de Uruguay, priority 2009, dated 2014).)
